From patent US12570642B2, “GLP-IR modulating compounds” (Gilead Sciences, Inc., priority 2021, dated 2026)

Target: GLP-1R (Homo sapiens, UniProt P43220)
Assay: GLP-1R Activation - cAMP Assay
Assay type: cell-based
Conditions: cAMP increase in CHO cells stably expressing GLP-1R; each compound run on one of the two cAMP assays (Assay 1 or Assay 2, not specified)
How it was run: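 CHO cells stably expressing GLP-1R, plated at 1,000 cells/well overnight, then equilibrated 1 h in HBSS with 20 mM Hepes and 0.1% BSA. Agonist added as 10-point dose response for 30 min at 37 °C. cAMP measured by HTRF (Cisbio Gs Dynamic kit); EC50 from sigmoidal fit.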

Chain of GLP-1R (P43220 24-463): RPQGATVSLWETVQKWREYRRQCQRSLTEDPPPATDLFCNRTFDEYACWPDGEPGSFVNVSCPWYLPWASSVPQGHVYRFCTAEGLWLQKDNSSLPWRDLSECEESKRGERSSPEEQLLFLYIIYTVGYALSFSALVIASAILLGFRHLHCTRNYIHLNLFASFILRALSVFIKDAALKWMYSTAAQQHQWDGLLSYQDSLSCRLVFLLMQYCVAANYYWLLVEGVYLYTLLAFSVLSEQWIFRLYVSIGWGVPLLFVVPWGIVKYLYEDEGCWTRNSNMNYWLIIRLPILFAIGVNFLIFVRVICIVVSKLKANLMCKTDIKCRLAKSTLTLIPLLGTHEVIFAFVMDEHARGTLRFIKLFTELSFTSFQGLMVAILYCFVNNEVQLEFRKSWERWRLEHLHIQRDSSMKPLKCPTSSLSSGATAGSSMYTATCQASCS

| EC50 | Compound |
| --- | --- |
| 0.159 nM | CC1(C)COC[C@H]1n1c(Cc2cc(F)c(-c3cccc(OCc4cc(F)c(C#N)cc4F)n3)cc2F)nc2ccc(C(=O)O)cc21 [Example 487, (S)-2-(4-(6-((4-cyano-2,5-difluorobenzyl)oxy)pyridin-2-yl)-2,5-difluorobenzyl)-1-(4,4-dimethyltetrahydrofuran-3-yl)-1H-benzo[d]imidazole-6-carboxylic acid] |
| 0.282 nM | CC1(C)COC[C@H]1n1c(Cc2cc(F)c(-c3cccc(OCc4ccc(Cl)c(F)c4F)n3)cc2F)nc2ccc(C(=O)O)cc21 [Example 488, (S)-2-(4-(6-((4-chloro-2,3-difluorobenzyl)oxy)pyridin-2-yl)-2,5-difluorobenzyl)-1-(4,4-dimethyltetrahydrofuran-3-yl)-1H-benzo[d]imidazole-6-carboxylic acid] |
| 0.342 nM | CC1(C)COC[C@H]1n1c(Cc2cc(F)c(-c3cccc(OCc4c(F)cc(Cl)cc4F)n3)cc2F)nc2ccc(C(=O)O)cc21 [Example 489, (S)-2-(4-(6-((4-chloro-2,6-difluorobenzyl)oxy)pyridin-2-yl)-2,5-difluorobenzyl)-1-(4,4-dimethyltetrahydrofuran-3-yl)-1H-benzo[d]imidazole-6-carboxylic acid] |
| 0.182 nM | CC1(C)COC[C@H]1n1c(Cc2cc(F)c(-c3cccc(OCc4cc(F)c(Cl)cc4F)n3)cc2F)nc2ccc(C(=O)O)cc21 [Example 490, (S)-2-(4-(6-((4-chloro-2,5-difluorobenzyl)oxy)pyridin-2-yl)-2,5-difluorobenzyl)-1-(4,4-dimethyltetrahydrofuran-3-yl)-1H-benzo[d]imidazole-6-carboxylic acid] |
| 0.079 nM | CC1(C)COC[C@H]1n1c(Cc2cc(F)c(-c3ccc(F)c(OCc4cc(F)c(C#N)cc4F)n3)cc2F)nc2ccc(C(=O)O)cc21 [Example 491, (S)-2-(4-(6-((4-cyano-2,5-difluorobenzyl)oxy)-5-fluoropyridin-2-yl)-2,5-difluorobenzyl)-1-(4,4-dimethyltetrahydrofuran-3-yl)-1H-benzo[d]imidazole-6-carboxylic acid] |
| 0.191 nM | CC1(C)COC[C@H]1n1c(Cc2cc(F)c(-c3cccc(OCc4ccc(C#N)c(F)c4F)n3)cc2F)nc2ccc(C(=O)O)cc21 [Example 492, (S)-2-(4-(6-((4-cyano-2,3-difluorobenzyl)oxy)pyridin-2-yl)-2,5-difluorobenzyl)-1-(4,4-dimethyltetrahydrofuran-3-yl)-1H-benzo[d]imidazole-6-carboxylic acid] |
| 0.278 nM | CC1(C)COC[C@H]1n1c(Cc2cc(F)c(-c3cccc(OCc4c(F)cc(C#N)cc4F)n3)cc2F)nc2ccc(C(=O)O)cc21 [Example 493, (S)-2-(4-(6-((4-cyano-2,6-difluorobenzyl)oxy)pyridin-2-yl)-2,5-difluorobenzyl)-1-(4,4-dimethyltetrahydrofuran-3-yl)-1H-benzo[d]imidazole-6-carboxylic acid] |
| 0.051 nM | C[C@H]1COC[C@H]1n1c(Cc2cc(F)c(-c3cccc(OCc4ccc(C#N)cc4F)n3)cc2F)nc2ccc(C(=O)O)cc21 [Example 494, 2-(4-(6-((4-cyano-2-fluorobenzyl)oxy)pyridin-2-yl)-2,5-difluorobenzyl)-1-((3S,4R)-4-methyltetrahydrofuran-3-yl)-1H-benzo[d]imidazole-6-carboxylic acid] |
| 0.144 nM | CC1(C)COC[C@H]1n1c(Cc2cc(F)c(-c3ccc(F)c(OCc4ccc(Cl)cc4F)n3)cc2F)nc2c(F)cc(C(=O)O)cc21 [Example 495, (S)-2-(4-(6-((4-chloro-2-fluorobenzyl)oxy)-5-fluoropyridin-2-yl)-2,5-difluorobenzyl)-1-(4,4-dimethyltetrahydrofuran-3-yl)-4-fluoro-1H-benzo[d]imidazole-6-carboxylic acid] |
| 0.026 nM | CC1(C)COC[C@H]1n1c(Cc2cc(F)c(-c3ccc(F)c(OCc4ccc(C#N)cc4F)n3)cc2F)nc2ccc(C(=O)O)cc21 [Example 496, (S)-2-(4-(6-((4-cyano-2-fluorobenzyl)oxy)-5-fluoropyridin-2-yl)-2,5-difluorobenzyl)-1-(4,4-dimethyltetrahydrofuran-3-yl)-1H-benzo[d]imidazole-6-carboxylic acid] |
| 0.206 nM | CC1(C)COC[C@H]1n1c(Cc2cc(F)c(-c3ccc(F)c(OCc4ccc(Cl)cc4F)n3)cc2F)nc2ccc(C(=O)O)cc21 [Example 497, (S)-2-(4-(6-((4-chloro-2-fluorobenzyl)oxy)-5-fluoropyridin-2-yl)-2,5-difluorobenzyl)-1-(4,4-dimethyltetrahydrofuran-3-yl)-1H-benzo[d]imidazole-6-carboxylic acid] |
| 0.508 nM | CC1(C)COC[C@H]1n1c(Cc2cc(F)c(-c3cccc(OCc4c(F)cc(C#N)cc4F)n3)cc2F)nc2c(F)cc(C(=O)O)cc21 [Example 498, (S)-2-(4-(6-((4-cyano-2,6-difluorobenzyl)oxy)pyridin-2-yl)-2,5-difluorobenzyl)-1-(4,4-dimethyltetrahydrofuran-3-yl)-4-fluoro-1H-benzo[d]imidazole-6-carboxylic acid] |
| 0.508 nM | CC1(C)COCC1n1c(Cc2cc(F)c(-c3cccc(OCc4c(F)cc(Cl)cc4F)n3)cc2F)nc2c(F)cc(C(=O)O)cc21 (stereo not drawn) [Example 499, 2-(4-(6-((4-chloro-2,6-difluorobenzyl)oxy)pyridin-2-yl)-2,5-difluorobenzyl)-1-(4,4-dimethyltetrahydrofuran-3-yl)-4-fluoro-1H-benzo[d]imidazole-6-carboxylic acid] |
| 0.203 nM | CC1(C)COC[C@H]1n1c(Cc2cc(F)c(-c3cccc(OCc4ccc(C#N)c(F)c4F)n3)cc2F)nc2c(F)cc(C(=O)O)cc21 [Example 500, (S)-2-(4-(6-((4-cyano-2,3-difluorobenzyl)oxy)pyridin-2-yl)-2,5-difluorobenzyl)-1-(4,4-dimethyltetrahydrofuran-3-yl)-4-fluoro-1H-benzo[d]imidazole-6-carboxylic Acid] |
| 0.508 nM | CC1(C)COCC1n1c(Cc2cc(F)c(-c3cccc(OCc4cc(F)c(Cl)cc4F)n3)cc2F)nc2c(F)cc(C(=O)O)cc21 (stereo not drawn) [Example 501, 2-(4-(6-((4-chloro-2,5-difluorobenzyl)oxy)pyridin-2-yl)-2,5-difluorobenzyl)-1-(4,4-dimethyltetrahydrofuran-3-yl)-4-fluoro-1H-benzo[d]imidazole-6-carboxylic acid] |
| 0.081 nM | CC1(C)COCC1n1c(Cc2cc(F)c(-c3ccc(F)c(OCc4ccc(C(F)(F)F)cc4F)n3)cc2F)nc2c(F)cc(C(=O)O)cc21 (stereo not drawn) [Example 503, 2-(2,5-difluoro-4-(5-fluoro-6-((2-fluoro-4-(trifluoromethyl)benzyl)oxy)pyridin-2-yl)benzyl)-1-(4,4-dimethyltetrahydrofuran-3-yl)-4-fluoro-1H-benzo[d]imidazole-6-carboxylic acid] |
| 0.148 nM | CC1(C)COCC1n1c(Cc2cc(F)c(-c3ccnc(OCc4ccc(C(F)F)cc4F)n3)cc2F)nc2c(F)cc(C(=O)O)cc21 (stereo not drawn) [Example 504, 2-(4-(2-((4-(difluoromethyl)-2-fluorobenzyl)oxy)pyrimidin-4-yl)-2,5-difluorobenzyl)-1-(4,4-dimethyltetrahydrofuran-3-yl)-4-fluoro-1H-benzo[d]imidazole-6-carboxylic acid] |
| 0.242 nM | CC1(C)COCC1n1c(Cc2cc(F)c(-c3cccc(OCc4ccc(C(F)F)cc4F)n3)cc2F)nc2c(F)cc(C(=O)O)cc21 (stereo not drawn) [Example 506, 2-(4-(6-((4-(difluoromethyl)-2-fluorobenzyl)oxy)pyridin-2-yl)-2,5-difluorobenzyl)-1-(4,4-dimethyltetrahydrofuran-3-yl)-4-fluoro-1H-benzo[d]imidazole-6-carboxylic acid] |
| 0.351 nM | COC(C)(C)C(C)n1c(Cc2cc(F)c(-c3cccc(OCc4ccc(Cl)cc4F)n3)cc2F)nc2ccc(C(=O)O)cc21 (stereo not drawn) [Example 507, 2-(4-(6-((4-chloro-2-fluorobenzyl)oxy)pyridin-2-yl)-2,5-difluorobenzyl)-1-(3-methoxy-3-methylbutan-2-yl)-1H-benzo[d]imidazole-6-carboxylic acid] |
| 0.302 nM | CC1(C)COC[C@H]1n1c(Cc2cc(F)c(-c3cccc(OCc4ccc(Cl)cc4F)c3)cc2F)nc2ccc(C(=O)O)cc21 [Example 508, (S)-2-((3′-((4-chloro-2-fluorobenzyl)oxy)-2,5-difluoro-[1,1′-biphenyl]-4-yl)methyl)-1-(4,4-dimethyltetrahydrofuran-3-yl)-1H-benzo[d]imidazole-6-carboxylic acid] |
| 0.144 nM | CC1(C)COC[C@H]1n1c(Cc2cc(F)c(-c3ccc(F)c(OCc4ccc(Cl)cc4F)c3)cc2F)nc2ccc(C(=O)O)cc21 [Example 509, (S)-2-((3′-((4-chloro-2-fluorobenzyl)oxy)-2,4′,5-trifluoro-[1,1′-biphenyl]-4-yl)methyl)-1-(4,4-dimethyltetrahydrofuran-3-yl)-1H-benzo[d]imidazole-6-carboxylic acid] |
| 0.509 nM | COC(C)(C)Cn1c(Cc2cc(F)c(-c3cccc(OCc4ccc(Cl)cc4F)n3)cc2F)nc2ccc(C(=O)O)cc21 [Example 510, 2-(4-(6-((4-chloro-2-fluorobenzyl)oxy)pyridin-2-yl)-2,5-difluorobenzyl)-1-(2-methoxy-2-methylpropyl)-1H-benzo[d]imidazole-6-carboxylic acid] |
| 0.588 nM | COCCn1c(Cc2cc(F)c(-c3cccc(OCc4ccc(C#N)cc4)n3)cc2F)nc2ccc(C(=O)O)cc21 [Example 511, 2-(4-(6-((4-cyanobenzyl)oxy)pyridin-2-yl)-2,5-difluorobenzyl)-1-(2-methoxyethyl)-1H-benzo[d]imidazole-6-carboxylic acid] |
| 0.515 nM | Cn1nnc2cc(COc3cccc(-c4cc(F)c(Cc5nc6ccc(C(=O)O)cc6n5[C@@H]5COCC5(C)C)cc4F)n3)ccc21 [Example 512, (S)-2-(2,5-difluoro-4-(6-((1-methyl-1H-benzo[d][1,2,3]triazol-5-yl)methoxy)pyridin-2-yl)benzyl)-1-(4,4-dimethyltetrahydrofuran-3-yl)-1H-benzo[d]imidazole-6-carboxylic acid] |
